{
  "source": "patent US20130078718A1",
  "about": "“CONVERSION OF VASCULAR ENDOTHELIAL CELLS INTO MULTIPOTENT STEM-LIKE CELLS” (PRESIDENT AND FELLOWS OF HARVARD COLLEGE, priority 2010, published 2013)",
  "system": "human cutaneous microvascular endothelial cells (HCMEC)",
  "test": "Differentiation into myocytes, cardiomyocytes and neurons (immunoblotting)",
  "assay_type": "cell-based",
  "details": "10 ng/ml, 48 hours, then myogenic, cardiomyogenic or neurogenic medium 14 days",
  "description": "Cardiomyogenic medium was purchased from Millipore Inc., (SCM-102).\nMyogenic medium consisted of human endothelial serum-free medium supplemented with 5% horse serum, 0.1 μM dexamethasone, and 50 μM hydrocortisone (previously described by Gang et al, 2004).\nNeurogenic medium consisted human endothelial serum-free medium supplemented with 100 ng/ml bFGF (previously described by Jiang et al., 2002). Endothelial cells converted into mesenchymal stem-like cells by treatment with 10 ng/ml TGF-β2 for 48 hours were plated on fibronectin-coated polystyrene wells in the neurogenic medium.",
  "data": [
    {"substance": "TGF-β2: Recombinant TGF-β2 protein (R&D Systems), ALK2 activating ligand, used at 10 ng/mL", "values": [
      {"measurement": "expression of MyoD1, cardiac troponin I or neurofilament-L (immunoblotting)", "result": "did express these markers"}
    ]}
  ]
}
